From paper PMC5589751, “Synthesis, high-throughput screening and pharmacological characterization of β–lactam derivatives as TRPM8 antagonists” (Scientific Reports, 2017)
Values joined by “and” are separate entries in the source; they are usually repeats but may differ in a detail not shown here. Equal values may be shown once.

Assays:
[1] = target: T1, TRPM8 (Rattus norvegicus, UniProt Q8R455); test: Ca2+ microfluorography (Fluo-4 NW), menthol-induced Ca2+ signal in HEK-CR1-TRPM8 cells; type: cell-based; details: for % Block TRPM8 50 µM: 50 µM compound; for % Block TRPM8 50 µM / IC50: agonist 100 µM menthol, HEK-CR1-TRPM8 cells
T1 construct: expressed in transfected cells
T1 sequence (Q8R455 whole entry): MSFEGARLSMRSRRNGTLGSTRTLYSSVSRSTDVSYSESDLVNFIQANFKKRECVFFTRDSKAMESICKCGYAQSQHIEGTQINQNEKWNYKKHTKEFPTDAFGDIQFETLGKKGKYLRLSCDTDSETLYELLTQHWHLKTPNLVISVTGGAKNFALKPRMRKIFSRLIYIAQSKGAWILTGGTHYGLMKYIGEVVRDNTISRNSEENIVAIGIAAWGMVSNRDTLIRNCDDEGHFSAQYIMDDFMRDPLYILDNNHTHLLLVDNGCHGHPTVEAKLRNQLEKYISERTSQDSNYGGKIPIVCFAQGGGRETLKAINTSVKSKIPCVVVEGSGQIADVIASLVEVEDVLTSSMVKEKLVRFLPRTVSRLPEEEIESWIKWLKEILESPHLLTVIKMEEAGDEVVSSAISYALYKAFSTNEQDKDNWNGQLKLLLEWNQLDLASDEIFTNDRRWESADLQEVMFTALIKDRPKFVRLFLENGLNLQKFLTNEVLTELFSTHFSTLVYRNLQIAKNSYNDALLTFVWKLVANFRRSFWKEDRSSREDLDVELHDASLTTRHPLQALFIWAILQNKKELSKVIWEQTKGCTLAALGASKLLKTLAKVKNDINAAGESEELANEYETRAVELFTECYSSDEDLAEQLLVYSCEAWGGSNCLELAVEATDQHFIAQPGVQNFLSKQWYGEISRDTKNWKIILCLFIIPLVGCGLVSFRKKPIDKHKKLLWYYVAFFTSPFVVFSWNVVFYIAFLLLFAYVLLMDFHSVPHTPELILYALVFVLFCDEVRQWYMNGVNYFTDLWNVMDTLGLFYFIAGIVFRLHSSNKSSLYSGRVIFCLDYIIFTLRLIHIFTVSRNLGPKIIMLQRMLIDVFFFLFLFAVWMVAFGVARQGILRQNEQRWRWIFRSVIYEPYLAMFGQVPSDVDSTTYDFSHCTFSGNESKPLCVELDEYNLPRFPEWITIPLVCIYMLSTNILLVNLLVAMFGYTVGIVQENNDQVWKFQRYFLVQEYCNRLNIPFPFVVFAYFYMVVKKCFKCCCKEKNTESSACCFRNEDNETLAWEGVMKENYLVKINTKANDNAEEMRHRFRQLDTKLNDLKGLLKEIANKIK
Protocol: (§1) All compounds were tested at two different concentrations (50 and 5 µM) on TRPM8 and TRPV1 channels stably expressed in HEK and SH-SY5Y cell lines, respectively. The agonist induced intracellular Ca^2+ signals were measured using a fluorescent Ca^2+ indicator, in the absence and in the presence of test compounds. […] The obtained results were compared to those of 68 (AMTB, TRPM8 antagonist) and ruthenium red (TRPV1 antagonist). The IC50 values for the assay on TRPM8 were also calculated.
(§2) For fluorescence assays, cells expressing TRP channels (SH-SY5Y-TRPV1 and HEKCR1-TRPM8) were seeded in 96-well plates (Corning Incorporated, Corning, NY) at a cell density of 40,000 cells 2 days before treatment. The day of treatment the medium was replaced with 100 µL of the dye loading solution Fluo-4 NW supplemented with probenecid 2.5 mM. Then the compounds dissolved in DMSO were added at the desired concentrations and the plate(s) were incubated at 37 °C in a humidified atmosphere of 5% CO2 for 60 minutes.
(§3) The fluorescence was measured using instrument settings appropriate for excitation at 485 nm and emission at 535 nm (POLARstar Omega BMG LABtech). […] The corresponding antagonist
(§4) (10 µM Ruthenium Red forTRPV1 and 10 µM 68 for TRPM8) was added for the blockade. The changes in fluorescence intensity were recorded during 15 cycles more. […] The blocking percentage was calculated as follow (Eq. 1):1 %TRPBlockedResponse=(1−Fo−Fi/FCo−FCi)∗100 where Fo is the fluorescence after the addition of menthol in the presence of the compound, Fi is the fluorescence before the addition of menthol in the presence of the compound, FCo is the fluorescence after the addition of menthol in the absence of the compound, FCi is the fluorescence before the addition of menthol in the absence of the compound. To guarantee that our results were useful we only used assays with a Z-factor higher than 0.5.
(§5) The statistical Z-factor to determine the quality of the HTS experiment as was calculated using the equation 2:2 Z‐factor=1−3∗(SDmax+SDmin)/Meanmax−Meanmin where: Meanmax is the mean of the maximum fluorescence in the presence of agonist, SDmax is the standard deviation of the maximum fluorescence in the presence of agonists, Meanmin is the mean of the maximum fluorescence in the presence of agonist and antagonist and SDmin is the standard deviation of the maximum fluorescence in the presence of agonist and antagonist.

[2] = target: TRPV1 (Rattus norvegicus, UniProt O35433); test: Ca2+ microfluorography (Fluo-4 NW), capsaicin-induced Ca2+ signal in SH-SY5Y-TRPV1 cells; type: cell-based; details: for % Block TRPV1 50 µM: 50 µM compound, agonist 10 µM capsaicin, SH-SY5Y-TRPV1 cells
Sequence of TRPV1 (O35433 whole entry): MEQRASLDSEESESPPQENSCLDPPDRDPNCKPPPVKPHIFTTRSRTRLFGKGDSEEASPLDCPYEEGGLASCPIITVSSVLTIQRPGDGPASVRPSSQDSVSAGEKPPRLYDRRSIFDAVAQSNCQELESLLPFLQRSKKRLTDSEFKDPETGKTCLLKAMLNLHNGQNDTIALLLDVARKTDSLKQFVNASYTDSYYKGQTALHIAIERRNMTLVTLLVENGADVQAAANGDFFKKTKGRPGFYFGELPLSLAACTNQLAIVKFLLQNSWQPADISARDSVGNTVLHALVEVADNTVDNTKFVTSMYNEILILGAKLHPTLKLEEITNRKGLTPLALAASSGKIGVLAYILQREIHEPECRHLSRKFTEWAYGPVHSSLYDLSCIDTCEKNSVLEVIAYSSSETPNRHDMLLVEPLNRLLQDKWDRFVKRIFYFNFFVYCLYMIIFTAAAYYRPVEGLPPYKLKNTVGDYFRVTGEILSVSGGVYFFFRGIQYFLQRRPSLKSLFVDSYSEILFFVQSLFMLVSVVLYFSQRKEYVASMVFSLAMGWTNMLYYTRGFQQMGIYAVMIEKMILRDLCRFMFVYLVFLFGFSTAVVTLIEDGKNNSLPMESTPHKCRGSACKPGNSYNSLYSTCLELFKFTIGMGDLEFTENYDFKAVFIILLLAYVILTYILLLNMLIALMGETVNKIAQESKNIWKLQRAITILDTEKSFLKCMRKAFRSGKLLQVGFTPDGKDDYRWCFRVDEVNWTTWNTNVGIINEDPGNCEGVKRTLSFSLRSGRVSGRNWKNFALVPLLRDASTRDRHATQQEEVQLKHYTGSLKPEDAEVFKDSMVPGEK
Protocol: as §1, §2, §3, §4, §5

[3] = Kinetic solubility; type: physicochemical

| % Block TRPM8 50 µM [1] | IC50 [1] | % Block TRPV1 50 µM [2] | SMILES | further results |
| --- | --- | --- | --- | --- |
| 49.2 ± 15.3% | 50.2 ± 1.3 µM |  | COC(=O)C(CCN1C(=O)CC1(Cc1ccccc1)C(=O)OC)NC(=O)OC(C)(C)C (stereo not drawn) [Compound 39] |  |
| 80.5 ± 15.8% | 36.8 ± 3.1 µM |  | COC(=O)C1(C)CC(=O)N1CC[C@H](NC(=O)OC(C)(C)C)C(=O)OCc1ccccc1 (stereo partly drawn) [Compound 43] |  |
| 86.5±19.6% | 1.7 ± 2.7 µM | 59.4 ± 10.5% | CC(C)(C)OC(=O)NC(CCCN1C(=O)CC1(Cc1ccccc1)C(=O)OCc1ccccc1)C(=O)OCc1ccccc1 (stereo not drawn) [Compound 46] | reduction of TRPM8 blockade activity compared with homologue 41 ([1]; longer N-alkyl chain, 46 versus 41): up to 4 fold |
| 94.9 ± 19.7% |  | 49.8 ± 7.2% | COC(=O)C(CCCN1C(=O)CC1(Cc1ccccc1)C(=O)OC(C)(C)C)NC(=O)OCc1ccccc1 (stereo not drawn) [Compound 47] |  |
| 41.7 ± 8.7% | 74.1 ± 3.6 µM | 15.9 ± 4.3% | CC(C)(C)OC(=O)NC(CCN1C(=O)CC1(Cc1ccccc1)C(=O)O)C(=O)O (stereo not drawn) [Compound 51] |  |
| 40.9 ± 10.3% | 68.4 ± 8.5 µM | 20.6 ± 9.2% | CC(C)(C)OC(=O)NC(CCCN1C(=O)CC1(Cc1ccccc1)C(=O)O)C(=O)O (stereo not drawn) [Compound 53] |  |
| 44.0 ± 16.5% | 70.4 ± 1.6 µM |  | COC(=O)[C@H](C)NC(=O)[C@H](CCN1C(=O)C[C@@]1(Cc1ccccc1)C(=O)N[C@@H](C)C(=O)OC)NC(=O)OC(C)(C)C [Compound 57b] |  |
| 70.4 ± 15.2% | 11.5 ± 2.7 µM | 26.9 ± 9.2% | CC(C)(C)OC(=O)NC(CCCN1C(=O)CC1(Cc1ccccc1)C(=O)NCc1ccccc1)C(=O)NCc1ccccc1 (stereo not drawn) [Compound 64] |  |
| 100% | 7 ± 1 µM |  | Cc1cccc(COc2ccccc2C(=O)N(CCCN)Cc2cccs2)c1 [Compound 68, reference compound] |  |
|  |  | 100% | N.N.N.N.N.N.N.N.N.N.N.N.N.N.[Cl-].[Cl-].[Cl-].[Cl-].[Cl-].[Cl-].[O-2].[O-2].[Ru+3].[Ru+3].[Ru+4] [Ruthenium red, reference compound] | IC50 ([2]; printed in the TRPM8 IC50 column, footnote a: evaluated in TRPV1): 0.015 µM |

Continued, compound first:

| SMILES | % Block TRPM8 50 µM [1] | IC50 [1] | % Block TRPV1 50 µM [2] | further results |
| --- | --- | --- | --- | --- |
| COC(=O)C1(Cc2ccccc2)CC(=O)N1CCC(NC(=O)OC(C)(C)C)C(=O)OCc1ccccc1 (stereo not drawn) [Compound 40] | 75% | 6.8 ± 1.02 µM | 42.4 ± 5.3% |  |
| COC(=O)C1(Cc2ccccc2)CC(=O)N1CCC(NC(=O)OCc1ccccc1)C(=O)OC(C)(C)C (stereo not drawn) [Compound 42] | 82% and 82.2 ± 29.0% | 6.2 ± 1.6 µM | 51.7 ± 15.4% |  |
| COC(=O)C1(C)CC(=O)N1CCC(NC(=O)OCc1ccccc1)C(=O)OC(C)(C)C (stereo not drawn) [Compound 44] | 21.3 ± 9.8% | 339.8 ± 1.4 µM | 26.8 ± 4.8% |  |
| COC(=O)[C@H](C)NC(=O)C1(Cc2ccccc2)CC(=O)N1CCC[C@H](NC(=O)OCc1ccccc1)C(=O)OC (stereo partly drawn) [Compound 58] | 50.7 ± 9.5% | 48.4 ± 18.6 µM | 18.3 ± 16.2% |  |
| COC(=O)[C@H](CCCN1C(=O)CC1(Cc1ccccc1)C(=O)N[C@H](C)C(=O)OC)NC(=O)OCc1ccccc1 (stereo partly drawn) [Compound 59] | 36.2 ± 22.3% | 81.2 ± 4.8 µM | 19.4 ± 5.1% |  |
| COC(=O)C(C)NC(=O)C1(Cc2ccccc2)CC(=O)N1CCCC(C(=O)OC)N(C)C(=O)OCc1ccccc1 (stereo not drawn) [Compound 60] | 71.3 ± 18.8% | 32.6 ± 1.8 µM |  |  |
| CNC(CCCN1C(=O)CC1(Cc1ccccc1)C(=O)NC(C)C(=O)OC)C(=O)OC (stereo not drawn) [Compound 61] | 78.3 ± 25.0% | 27 ± 1.7 µM |  |  |
| CC(C)(C)OC(=O)N[C@@H](CCN1C(=O)C[C@]1(Cc1ccccc1)C(=O)NCc1ccccc1)C(=O)NCc1ccccc1 [Compound 62a] | 70.0 ± 18.6% | 7.1 ± 0.3 µM | 42.5 ± 16.2% | Kinetic solubility ([3]; 1% DMSO): 63 µM and 38 mg/L; Kinetic solubility ([3]; 5% DMSO): 92 µM and 55 mg/L |
| CC(C)(C)OC(=O)NC(CCN1C(=O)CC1(Cc1ccccc1)C(=O)Nc1cccnc1)C(=O)Nc1cccnc1 (stereo not drawn) [Compound 66] | 64.6 ± 13.2% | 5.7 ± 3.4 µM | 22.8 ± 3.7% | Kinetic solubility ([3]; 1% DMSO): > 100 µM; Kinetic solubility ([3]; 5% DMSO): > 500 µM; improved solubility respect to 41 ([3]; ratio to compound 41): > 50 fold; improved solubility respect to 62 ([3]; ratio to compound 62): > 5 fold |
| CC(C)(C)OC(=O)N[C@@H](CCN1C(=O)C[C@]1(Cc1ccccc1)C(=O)Nc1ccncc1)C(=O)Nc1ccncc1 [Compound 67a] | 43.5 ± 9.8% | 38.1 ± 6.3 µM | 36.3 ± 10.8% |  |
| CC(C)(C)OC(=O)N[C@@H](CCN1C(=O)C[C@@]1(Cc1ccccc1)C(=O)Nc1ccncc1)C(=O)Nc1ccncc1 [Compound 67b] | 52.3 ± 7.6% | 7.26 ± 1.9 µM | 31.7 ± 4.5% |  |
| CC1CCC(C(C)C)C(O)C1 (stereo not drawn) [menthol, reference compound] |  |  |  | EC50 ([1]; agonist, in our assay): 137 µM |
